In ChEMBL document CHEMBL3286289, “Synthesis and structure-activity relationship of non-phosphorus-based fructose-1,6-bisphosphatase inhibitors: 2,5-Diphenyl-1,3,4-oxadiazoles” (Eur J Med Chem, 2014):
One block for each compound: values may come before it. The source made the active and inactive calls. The rule behind the calls is not given here.

Assays:
[1] = Inhibition of human recombinant FBPase-mediated fructose-6-phosphate formation by coupled spectrophotometric assay
Hepatocyte [2] = assay: Inhibition of gluconeogenesis in Sprague-Dawley rat hepatocytes assessed as decrease in glucose output at 2 mM after 4 hrs by colorimetric assay relative to control; assay type: functional; settings: values are per cent of control
Hepatocyte [3] = assay: Inhibition of gluconeogenesis in Sprague-Dawley rat hepatocytes assessed as decrease in glucose output at 20 uM after 4 hrs by colorimetric assay relative to control; assay type: functional; settings: values are per cent of control
Hepatocyte [4] = assay: Inhibition of gluconeogenesis in Sprague-Dawley rat hepatocytes assessed as decrease in glucose output at 10 uM after 4 hrs by colorimetric assay relative to control; assay type: functional; settings: values are per cent of control
Hepatocyte [5] = assay: Inhibition of gluconeogenesis in Sprague-Dawley rat hepatocytes assessed as glucose output at 80 to 160 uM after 4 hrs by colorimetric assay; assay type: functional, cell-based
Hepatocyte [6] = assay: Inhibition of gluconeogenesis in Sprague-Dawley rat hepatocytes assessed as decrease in glucose output at 40 uM after 4 hrs by colorimetric assay relative to control; assay type: functional; settings: values are per cent of control

Compound: Nc1ncnc2c1ncn2[C@@H]1O[C@H](COP(=O)(O)O)[C@@H](O)[C@H]1O [ADENOSINE PHOSPHATE]
- IC50 [1]: 1.3 µM

Compound: CN(C)C(=N)NC(=N)N [METFORMIN]
- response, % of control at 2000 µM (Hepatocyte [2]): 75%

Compound: Cc1ccc(-c2nnc(-c3cccc(NC(=O)CCCCN4CCOCC4)c3)o2)cc1
- IC50 [1]: 5.01 µM

Compound: Cc1ccc(-c2nnc(-c3cccc(NC(=O)CCCCCN4CCOCC4)c3)o2)cc1
- response, % of control at 20 µM (Hepatocyte [3]): 83.6%
- response, % of control at 10 µM (Hepatocyte [4]): 83.3%
- inhibition (Hepatocyte [5]): inactive
- response, % of control at 40 µM (Hepatocyte [6]): 85.2%
- IC50 [1]: 2.54 µM

Second part, led by results:

- IC50 [1]: 15.5 µM
Compound: COc1ccc(CC(=O)Nc2cccc(-c3nnc(-c4cccc(Cl)c4)o3)c2)cc1OC

- IC50 [1]: 4.51 µM
Compound: COc1ccc(CC(=O)Nc2cccc(-c3nnc(-c4ccc(C)cc4)o3)c2)cc1OC
- response, % of control at 20 µM (Hepatocyte [3]): 93.5%
- response, % of control at 10 µM (Hepatocyte [4]): 96.7%
- response, % of control at 40 µM (Hepatocyte [6]): 103%

- IC50 [1]: 4.96 µM
Compound: Cc1ccc(-c2nnc(-c3cccc(NC(=O)CCCN4CCOCC4)c3)o2)cc1
